Assay results published in ChEMBL document CHEMBL1157566, “Cytotoxic and anti-inflammatory cembranoids from the Dongsha Atoll soft coral Sarcophyton crassocaule” (2010).
Converted amounts (≈) assume the structure as drawn.

Legend:
Format in all cases: functional
RAW264.7 [1] = assay: Antiinflammatory activity in mouse RAW264.7 cells assessed as inhibition of LPS-stimulated iNOS protein expression by measuring iNOS protein level at 10 uM by Western blot relative to untreated control
HEp-2 = assay: Cytotoxicity against human Hep2 cells by MTT assay; details: read-out: ED50 (the source's name)
WiDr = assay: Cytotoxicity against human WiDr cells by MTT assay; details: read-out: ED50 (the source's name)
Daoy = assay: Cytotoxicity against human DaOY cells by MTT assay; details: read-out: ED50 (the source's name)
MCF7 = assay: Cytotoxicity against human MCF7 cells by MTT assay; details: read-out: ED50 (the source's name)
RAW264.7 [2] = assay: Antiinflammatory activity in mouse RAW264.7 cells assessed as inhibition of LPS-stimulated COX2 protein expression by measuring COX2 protein level at 10 uM by Western blot relative to untreated control; parameters: scale not given: the % may be the effect or the level left

How did the “iNOS protein level relative to control” value (RAW264.7 [1]) turn out when C=C1C(=O)O[C@H]2C/C(C)=C/CCC(=C)[C@H]3CC[C@@](C)(O3)[C@@H](O)C[C@H]12 [SARCOCRASSOCOLIDE C] was run?
The value was 4.6%.

And the EC50 (HEp-2)?
Its EC50 is 2.6 µg/mL (≈ 7.82 µM).

And the EC50 (WiDr)?
Its EC50 is 1.2 µg/mL (≈ 3.61 µM).

What about the EC50 (Daoy) of the same molecule?
Its EC50 is 3.2 µg/mL (≈ 9.63 µM).

What about the EC50 (MCF7) of the same molecule?
Its EC50 is 2 µg/mL (≈ 6.02 µM).

Which results are given for C=C1C(=O)O[C@@H]2[C@@H]1C[C@H](O)[C@@]1(C)CC[C@@H](O1)C(=C)CC/C=C(\C)[C@@H]2OC(C)=O [SARCOCRASSOCOLIDE A]?
iNOS protein level relative to control (RAW264.7 [1]): 13.7%; EC50 (HEp-2): 6.2 µg/mL (≈ 15.9 µM); EC50 (WiDr): 4.2 µg/mL (≈ 10.8 µM); EC50 (Daoy): 8.8 µg/mL (≈ 22.5 µM); EC50 (MCF7): 4.2 µg/mL (≈ 10.8 µM)

C=C1CC/C=C(\C)C[C@@H]2OC(=O)C(=C)[C@H]2C[C@H](O)[C@@]2(C)CC[C@@H]1O2 [SARCOCRASSOCOLIDE D] was tested. Which “iNOS protein level relative to control” value (RAW264.7 [1]) did it give?
The value was 7%.

And the EC50 (HEp-2)?
Its EC50 is 4 µg/mL (≈ 12 µM).

And the EC50 (WiDr)?
The EC50 was 1.8 µg/mL (≈ 5.41 µM).

What about the EC50 (Daoy) of the same molecule?
The EC50 was 5.4 µg/mL (≈ 16.2 µM).

What about the EC50 (MCF7) of the same molecule?
The EC50 was 4.1 µg/mL (≈ 12.3 µM).

With CO[C@@]12[C@H](COC(N)=O)C3=C(C(=O)C(C)=C(N)C3=O)N1C[C@@H]1N[C@@H]12 [MITOMYCIN] as the molecule, how does the EC50 (HEp-2) read?
Its EC50 is 0.07 µg/mL (≈ 0.209 µM).

What about the EC50 (WiDr) of the same molecule?
The EC50 was 0.15 µg/mL (≈ 0.449 µM).

What about the EC50 (Daoy) of the same molecule?
Its EC50 is 0.14 µg/mL (≈ 0.419 µM).

What about the EC50 (MCF7) of the same molecule?
Its EC50 is 0.14 µg/mL (≈ 0.419 µM).

How did the “iNOS protein level relative to control” value (RAW264.7 [1]) turn out when C=C1C(=O)O[C@@H]2C/C(C)=C/CC/C(C)=C/CC[C@]3(C)O[C@H]3C[C@@H]12 [SARCOCRASSOLIDE] was run?
The value was 1.1%.

And the Activity (RAW264.7 [2])?
The Activity was 3.9%.

Which results are given for C=C1CC/C=C(\C)[C@H](OC(C)=O)[C@@H]2OC(=O)C(=C)[C@H]2C[C@H](O)[C@@]2(C)CC[C@@H]1O2 [SARCOCRASSOCOLIDE B]?
iNOS protein level relative to control (RAW264.7 [1]): 13.3%; EC50 (HEp-2): 4.5 µg/mL (≈ 11.5 µM); EC50 (WiDr): 3.2 µg/mL (≈ 8.2 µM); EC50 (Daoy): 5.6 µg/mL (≈ 14.3 µM); EC50 (MCF7): 3.2 µg/mL (≈ 8.2 µM)

Which “iNOS protein level relative to control” value (RAW264.7 [1]) does the source give for C=C1C(=O)O[C@H]2[C@H]1C[C@@H]1O[C@@]1(C)CC/C=C(\C)CC/C=C(\C)[C@@H]2OC(C)=O here?
Its value is 6.2%.
